Source: patent publication US12516056B2, “Compounds for inhibition of janus kinase 1” (MANKIND PHARMA LTD., priority 2019, dated 2026)
Like-named read-outs stand apart in the source and are kept apart here.

Columns and labels:
[1] = system: STAT3 phosphorylation by IL-6 in TF-1 cells; test: JAK cellular assay: STAT3 phosphorylation by IL-6 in TF-1 cells (HTRF); format: cell-based; settings: Homo sapiens
How it was run: (§1)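 TF-1 cells starved overnight in low-serum OptiMEM, then 120,000/well in RPMI, preincubated with compound 30 min at 37 °C (0.2% DMSO final). Stimulation 20 min with IL-6 30 ng/ml (pSTAT3) or GMCSF 5 ng/ml (pSTAT5); lysate phospho-STAT by HTRF, unstimulated background subtracted.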

[2] = system: STAT5 phosphorylation by GMCSF in TF-1 cells; test: JAK cellular assay: STAT5 phosphorylation by GMCSF in TF-1 cells (HTRF); format: cell-based; settings: Homo sapiens
How it was run: as §1

[3] = system: STAT5 phosphorylation by IL-2 in HT-2 cells; test: STAT5 phosphorylation by IL-2 in HT-2 cells (HTRF); format: cell-based
How it was run: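 Starved HT-2 cells (120,000/well) were preincubated 30 min at 37 °C with compound (0.2% DMSO), then stimulated 20 min with human IL-2 (50 U/ml). pSTAT5 in lysates measured by HTRF, with unstimulated-cell background subtracted.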

[4] = system: IFN-γ production in NK 92 cells by IL-12; test: IFN-γ production in NK 92 cells by IL-12 (ELISA); settings: NK92, IFN-γ detection from cell supernatants, read-out: Cell based IC50 (μM) NK-92/IL-12*
Procedure: NK 92 cells were cultured in medium without IL-2 for overnight. Next day, 5000 cells per well NK 92 cells were seeded in a 96 well plate. Compounds were added to cells and incubated for 1 hour. Later IL-12, 10 U/ml was added to cells and incubated for overnight. Supernatant was collected from the wells and IFN-7 secretion was measured by using human IFN-7 ELISA kit. Absorbance was measured at 450 nm in BMG FLUOstar. Background signal obtained from cells which were not activated with cytokines, was subtracted from vehicle controls and compound treated wells.

[5] = system: Imiquimod induced dermatitis in mice; test: Mouse model of Imiquimod induced psoriasis; format: in vivo, Female BALB/c mice; settings: 3% topical, QD; IMQ induced psoriasis, mice
Procedure: Imiquimod (IMQ) induced dermatitis closely resembles human psoriasis lesions not only with regard to phenotypic and histological characteristics but also in the development of the lesions. IMQ is a ligand for toll-like receptor 7 (TLR7) and TLR8, and is a potent immune activator. […] Migration of activated dermal dendritic cells to lymph nodes in skin triggers a sequence of events leading to late phase of psoriasis. Compounds described herein are tested for JAK inhibition driven efficacy in Imiquimod induced dermatitis in mice.
Female BALB/c mice were topically dosed with 3% cream formulation containing test compounds. After four hours of test compound administration, 5% Imiquimod was applied on back skin and right ear for five days. On day 6, post dosing with test compounds, the severity of psoriasis was monitored and graded following Psoriasis Area and Severity Index (PASI). Efficacies of the compounds were evaluated based on PASI score. Redness, thickness and scaling of back skin and ear were assessed among the groups for scoring.

Recombinant JAK1 = target: T1, Recombinant JAK1 (Homo sapiens, UniProt P23458); test: JAK biochemical assay (LANCE Ultra TR-FRET), JAK1
T1 construct: purchased Carna Biosciences
How it was run: (§2)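 Kinase reactions ran in buffer of 50 mM HEPES pH 7.5 with 1 mM EGTA, 10 mM MgCl2, 2 mM DTT and 0.01% Tween-20, using recombinant enzyme. Phosphorylated ULight substrate was detected by TR-FRET, and compound effect expressed as % inhibition against vehicle.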

Recombinant JAK2 = target: T2, Recombinant JAK2 (Homo sapiens, UniProt O60674); test: JAK biochemical assay (LANCE Ultra TR-FRET), JAK2
T2 construct: purchased Carna Biosciences
How it was run: as §2

Recombinant JAK3 = target: T3, Recombinant JAK3 (Homo sapiens, UniProt P52333); test: JAK biochemical assay (LANCE Ultra TR-FRET), JAK3
T3 construct: purchased Carna Biosciences
T3 sequence (P52333 1-1124): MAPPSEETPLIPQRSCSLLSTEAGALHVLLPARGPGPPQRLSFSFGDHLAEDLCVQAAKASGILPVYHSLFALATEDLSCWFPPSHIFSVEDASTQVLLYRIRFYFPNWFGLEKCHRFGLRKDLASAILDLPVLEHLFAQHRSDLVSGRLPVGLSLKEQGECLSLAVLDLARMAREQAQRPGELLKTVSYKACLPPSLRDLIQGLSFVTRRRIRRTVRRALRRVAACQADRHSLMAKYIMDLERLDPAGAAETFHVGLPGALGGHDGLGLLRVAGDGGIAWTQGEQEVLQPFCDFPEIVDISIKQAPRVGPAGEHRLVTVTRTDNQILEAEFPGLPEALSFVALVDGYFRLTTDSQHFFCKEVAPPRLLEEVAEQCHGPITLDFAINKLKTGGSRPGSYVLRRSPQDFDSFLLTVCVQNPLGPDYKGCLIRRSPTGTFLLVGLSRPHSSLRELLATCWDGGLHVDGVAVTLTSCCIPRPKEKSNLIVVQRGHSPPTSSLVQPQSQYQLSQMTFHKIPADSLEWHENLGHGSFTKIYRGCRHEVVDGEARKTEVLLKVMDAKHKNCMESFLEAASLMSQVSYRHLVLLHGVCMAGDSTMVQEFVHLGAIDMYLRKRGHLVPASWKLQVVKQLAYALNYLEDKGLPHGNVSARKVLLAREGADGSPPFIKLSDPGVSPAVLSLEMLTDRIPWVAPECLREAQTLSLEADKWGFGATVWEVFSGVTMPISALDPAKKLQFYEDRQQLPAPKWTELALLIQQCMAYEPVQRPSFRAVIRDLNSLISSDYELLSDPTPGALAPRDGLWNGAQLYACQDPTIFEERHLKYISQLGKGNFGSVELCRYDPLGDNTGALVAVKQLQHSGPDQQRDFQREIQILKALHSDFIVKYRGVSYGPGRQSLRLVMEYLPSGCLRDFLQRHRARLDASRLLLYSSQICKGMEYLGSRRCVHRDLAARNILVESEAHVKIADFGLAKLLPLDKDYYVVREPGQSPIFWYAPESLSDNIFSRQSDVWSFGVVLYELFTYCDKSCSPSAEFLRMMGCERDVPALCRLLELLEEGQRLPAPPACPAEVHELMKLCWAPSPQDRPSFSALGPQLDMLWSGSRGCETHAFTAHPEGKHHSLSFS
How it was run: as §2

Recombinant TYK2 = target: T4, Recombinant TYK2 (Homo sapiens, UniProt P29597); test: JAK biochemical assay (LANCE Ultra TR-FRET), TYK2
T4 construct: purchased Carna Biosciences
How it was run: as §2

[6] = system: IFN-γ production in NK 92 cells by IL-12; test: IFN-γ production in NK 92 cells by IL-12 (ELISA); settings: NK92, IFN-γ secretion, read-out: Cell Based Assay (μM) NK-92/IL-2/IFN-γ
[7] = system: collagen induced mouse arthritis model; test: Mouse model of rheumatoid arthritis (collagen induced arthritis); format: in vivo; settings: orally dosed, QD for 21 days; reference filgotinib
Text: Rheumatoid arthritis (RA) is an autoimmune disease that can cause joint pain and damage throughout the body. Several cytokines such as IL-6 and IFN-γ activate the Janus kinase/signal transducers and activators of transcription (JAK/STAT) pathway. Inhibition of JAK/STAT pathway is considered as one of the therapeutic options for treatment of rheumatoid arthritis. Rodent models of arthritis can be used to evaluate the therapeutic potential of compounds dosed preventatively or therapeutically. These models include but are not limited to mouse or rat collagen-induced arthritis, rat adjuvant-induced arthritis, and collagen antibody-induced arthritis.
Compounds described herein are tested for JAK/STAT pathway inhibition driven efficacy in collagen induced mouse arthritis model. Compounds were orally dosed, QD for 21 days and at the end of the study, clinical symptoms, body weight and histopathology of ankle and paws were measured. Arthritis score was calculated for the compounds as well as reference standard, filgotinib.

[8] = recombinant JAK1, TR-FRET, read-out: Biochemical Assay (μM) JAK1
[9] = recombinant JAK2, TR-FRET, read-out: Biochemical Assay (μM) JAK2
[10] = recombinant JAK3, TR-FRET, read-out: Biochemical Assay (μM) JAK3
[11] = recombinant TYK2, TR-FRET, read-out: Biochemical Assay (μM) TYK2
[12] = TF-1, TF-1 cells, IL-6 30 ng/ml, pSTAT3 HTRF, read-out: Cell Based Assay (μM) TF-1/IL-6/pSTAT3
[13] = TF-1 cells, GMCSF 5 ng/ml, pSTAT5 HTRF, read-out: Cell Based Assay (μM) TF-1/GMCSF/pSTAT5
[14] = HT2, HT-2 cells, IL-2 50 U/ml, pSTAT5 HTRF, read-out: Cell Based Assay (μM) HT-2/IL-2/pSTAT5

T1 sequence (P23458 whole entry): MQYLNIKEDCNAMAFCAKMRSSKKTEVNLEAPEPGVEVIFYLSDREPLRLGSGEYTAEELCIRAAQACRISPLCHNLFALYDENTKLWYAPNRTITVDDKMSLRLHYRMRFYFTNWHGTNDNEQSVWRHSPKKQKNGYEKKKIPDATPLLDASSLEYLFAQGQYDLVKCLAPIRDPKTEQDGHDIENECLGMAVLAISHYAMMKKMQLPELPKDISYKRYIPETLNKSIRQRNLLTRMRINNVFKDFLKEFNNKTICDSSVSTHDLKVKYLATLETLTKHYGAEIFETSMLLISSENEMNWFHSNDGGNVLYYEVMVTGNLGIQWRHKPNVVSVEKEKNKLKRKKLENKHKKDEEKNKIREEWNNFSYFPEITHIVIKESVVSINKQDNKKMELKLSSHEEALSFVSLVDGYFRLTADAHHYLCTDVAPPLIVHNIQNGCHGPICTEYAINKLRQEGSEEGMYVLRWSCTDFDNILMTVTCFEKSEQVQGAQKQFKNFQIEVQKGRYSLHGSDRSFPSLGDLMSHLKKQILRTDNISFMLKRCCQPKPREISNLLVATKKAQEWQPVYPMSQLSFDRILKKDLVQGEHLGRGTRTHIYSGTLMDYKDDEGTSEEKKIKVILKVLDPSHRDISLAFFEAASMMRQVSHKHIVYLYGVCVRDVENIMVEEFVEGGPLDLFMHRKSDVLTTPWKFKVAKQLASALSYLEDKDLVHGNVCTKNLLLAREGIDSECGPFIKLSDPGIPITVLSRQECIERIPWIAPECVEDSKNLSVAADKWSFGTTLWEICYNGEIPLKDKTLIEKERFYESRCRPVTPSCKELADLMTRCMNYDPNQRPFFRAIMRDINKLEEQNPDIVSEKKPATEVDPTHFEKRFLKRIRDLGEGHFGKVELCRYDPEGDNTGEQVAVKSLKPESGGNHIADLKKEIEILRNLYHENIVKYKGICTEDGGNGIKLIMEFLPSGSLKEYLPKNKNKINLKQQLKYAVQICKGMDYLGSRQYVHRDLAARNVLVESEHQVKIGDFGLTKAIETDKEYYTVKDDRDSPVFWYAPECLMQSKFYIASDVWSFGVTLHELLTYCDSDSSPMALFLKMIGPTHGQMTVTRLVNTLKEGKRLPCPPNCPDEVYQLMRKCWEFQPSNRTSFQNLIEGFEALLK
T4 sequence (P29597 whole entry): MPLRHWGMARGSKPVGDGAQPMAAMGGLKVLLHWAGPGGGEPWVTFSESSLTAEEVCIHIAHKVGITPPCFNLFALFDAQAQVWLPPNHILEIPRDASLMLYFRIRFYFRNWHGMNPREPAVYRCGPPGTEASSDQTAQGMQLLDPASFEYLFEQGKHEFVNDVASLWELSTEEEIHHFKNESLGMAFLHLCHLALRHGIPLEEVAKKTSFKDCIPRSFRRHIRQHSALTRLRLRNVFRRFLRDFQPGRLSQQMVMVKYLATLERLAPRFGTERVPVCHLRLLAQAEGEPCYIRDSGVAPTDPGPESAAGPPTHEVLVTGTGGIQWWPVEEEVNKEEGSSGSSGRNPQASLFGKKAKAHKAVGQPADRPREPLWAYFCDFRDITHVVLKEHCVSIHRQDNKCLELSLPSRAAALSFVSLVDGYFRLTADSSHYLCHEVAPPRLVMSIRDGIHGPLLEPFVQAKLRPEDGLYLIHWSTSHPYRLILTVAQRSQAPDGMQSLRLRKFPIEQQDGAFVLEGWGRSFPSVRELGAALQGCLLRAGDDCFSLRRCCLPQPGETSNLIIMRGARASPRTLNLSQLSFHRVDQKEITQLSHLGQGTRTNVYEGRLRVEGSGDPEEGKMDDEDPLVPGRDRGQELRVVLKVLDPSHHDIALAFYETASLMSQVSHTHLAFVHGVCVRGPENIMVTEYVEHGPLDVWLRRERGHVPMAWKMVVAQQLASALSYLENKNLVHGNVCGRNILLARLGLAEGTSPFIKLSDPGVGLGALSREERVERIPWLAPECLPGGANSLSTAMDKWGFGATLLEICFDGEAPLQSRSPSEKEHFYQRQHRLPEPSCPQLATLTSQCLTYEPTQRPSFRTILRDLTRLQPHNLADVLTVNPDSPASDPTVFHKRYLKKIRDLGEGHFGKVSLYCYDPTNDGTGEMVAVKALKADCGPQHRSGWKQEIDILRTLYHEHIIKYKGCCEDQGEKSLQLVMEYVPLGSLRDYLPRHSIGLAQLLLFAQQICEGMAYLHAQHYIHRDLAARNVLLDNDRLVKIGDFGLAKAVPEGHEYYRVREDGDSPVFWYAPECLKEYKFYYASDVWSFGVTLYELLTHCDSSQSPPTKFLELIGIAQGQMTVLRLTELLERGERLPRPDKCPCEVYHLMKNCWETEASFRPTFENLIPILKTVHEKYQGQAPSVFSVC
T2 sequence (O60674 whole entry): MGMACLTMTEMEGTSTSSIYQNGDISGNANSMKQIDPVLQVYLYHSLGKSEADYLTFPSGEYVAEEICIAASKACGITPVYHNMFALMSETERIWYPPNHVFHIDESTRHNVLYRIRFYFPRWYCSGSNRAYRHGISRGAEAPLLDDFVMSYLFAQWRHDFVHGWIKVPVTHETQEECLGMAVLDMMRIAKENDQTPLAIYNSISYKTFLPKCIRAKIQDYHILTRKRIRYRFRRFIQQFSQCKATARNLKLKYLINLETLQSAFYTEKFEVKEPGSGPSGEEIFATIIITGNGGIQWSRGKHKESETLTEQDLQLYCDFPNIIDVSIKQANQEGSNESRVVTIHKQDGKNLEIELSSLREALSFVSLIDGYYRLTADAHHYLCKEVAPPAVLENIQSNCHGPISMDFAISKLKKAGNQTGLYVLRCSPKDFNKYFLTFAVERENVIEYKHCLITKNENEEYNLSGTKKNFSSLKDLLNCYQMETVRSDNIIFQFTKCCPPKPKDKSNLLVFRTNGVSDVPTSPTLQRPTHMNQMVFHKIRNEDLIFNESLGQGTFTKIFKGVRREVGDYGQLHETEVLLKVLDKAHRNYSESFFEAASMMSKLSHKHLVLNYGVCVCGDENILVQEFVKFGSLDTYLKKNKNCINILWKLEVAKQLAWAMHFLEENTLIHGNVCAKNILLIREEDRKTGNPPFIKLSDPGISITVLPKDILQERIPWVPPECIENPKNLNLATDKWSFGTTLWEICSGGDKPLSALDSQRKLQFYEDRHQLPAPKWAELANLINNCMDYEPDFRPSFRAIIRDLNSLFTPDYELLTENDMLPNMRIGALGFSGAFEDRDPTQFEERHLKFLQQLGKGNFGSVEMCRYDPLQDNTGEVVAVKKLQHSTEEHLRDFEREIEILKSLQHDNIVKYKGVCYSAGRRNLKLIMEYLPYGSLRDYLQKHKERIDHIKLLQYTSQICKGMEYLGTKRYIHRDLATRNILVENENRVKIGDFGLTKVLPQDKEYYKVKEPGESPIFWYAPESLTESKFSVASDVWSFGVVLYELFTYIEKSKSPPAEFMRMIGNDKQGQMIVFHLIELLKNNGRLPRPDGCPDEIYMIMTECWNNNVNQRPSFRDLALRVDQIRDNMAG

| Compound | IC50 [4] [µM] | IC50 (Recombinant JAK1; [8]) [µM] | IC50 (Recombinant JAK2; [9]) [µM] | IC50 (Recombinant JAK3; [10]) [µM] | IC50 (Recombinant TYK2; [11]) [µM] | IC50 [1, 12] [µM] | IC50 [2, 13] [µM] | IC50 [3, 14] [µM] | IC50 [6] [µM] | other results |
| --- | --- | --- | --- | --- | --- | --- | --- | --- | --- | --- |
| O=C(Nc1nc2cccc(-c3ccc(CN4CCS(=O)(=O)CC4)cc3)n2n1)C1CC1 [Filgotinib, filgotinib, reference compound] | > 10 | – | – | – | – | – | – | – | – | IC50 ([1]; TF-1, read-out: Cell based IC50 (μM) TF-1/IL-6): 0.6 µM; IC50 ([2]; TF-1, read-out: Cell based IC50 (μM) TF-1/GM-CSF): 3.4 µM; IC50 ([3]; HT2, read-out: Cell based IC50 (μM) HT-2/IL-2): 0.95 µM; back skin thickness [5]: significant decrease; cumulative psoriasis score compared to vehicle [5]: statistically significant decrease; ear thickness [5]: significant decrease |
| N#CCc1ccc(-n2cc(-c3ccnc4[nH]cnc34)cn2)nc1 [Example 1078, 2-(6-(4-(3H-imidazo[4,5-b]pyridin-7-yl)-1H-pyrazol-1-yl)pyridin-3-yl)acetonitrile] | – | 0.025 | 0.108 | 0.07 | > 1 | 1.05 | > 10 | > 1 | > 10 | – |
| CS(=O)(=O)CC[C@@H](c1ccc(-n2cc(-c3ccnc4[nH]cnc34)cn2)nc1)C(F)(F)F [Example 1181, 7-(1-(5-((S)-1,1,1-trifluoro-4-(methylsulfonyl)butan-2-yl)pyridin-2-yl)-1H-pyrazol-4-yl)-3H-imidazo[4,5-b]pyridine] | > 10 | < 0.1 | – | < 0.1 | > 1 | > 0.5 | > 1 | > 1 | – | IC50 (Recombinant JAK1; read-out: Biochemical IC50 (nM) JAK1): 0.015 µM; IC50 (Recombinant JAK2; read-out: Biochemical IC50 (nM) JAK2): 0.105 µM; IC50 (Recombinant JAK3; read-out: Biochemical IC50 (nM) JAK3): 0.042 µM; IC50 (Recombinant TYK2; read-out: Biochemical IC50 (nM) TYK2): > 0.001 µM; IC50 ([1]; TF-1, TF-1 cells, IL-6 stimulation, read-out: Cell based IC50 (μM) TF-1/IL-6): 0.35 µM; IC50 ([2]; TF-1 cells, GM-CSF stimulation, read-out: Cell based IC50 (μM) TF-1/GM-CSF): > 10 µM; IC50 ([3]; HT2, HT-2 cells, IL-2 stimulation, read-out: Cell based IC50 (μM) HT-2/IL-2): 0.9 µM; efficacy (arthritis score) in collagen induced mouse arthritis model [7]: very good efficacy |
| OC(c1ccc(-n2cc(-c3ccnc4[nH]cnc34)cn2)nc1)C(F)(F)F (stereo not drawn) [Example 1169, 1-(6-(4-(3H-imidazo[4,5-b]pyridin-7-yl)-1H-pyrazol-1-yl)pyridin-3-yl)-2,2,2-trifluoroethanol] | – | 0.013 | 0.073 | 0.014 | > 1 | 0.45 | > 10 | < 1 | > 10 | – |
| CCN1CCC([C@@](O)(c2ccc(-n3cc(-c4ccnc5[nH]cnc45)cn3)nc2)C(F)(F)F)C1 (stereo partly drawn) [Example 1232, (R)-1-(6-(4-(3H-imidazo[4,5-b]pyridin-7-yl)-1H-pyrazol-1-yl)pyridin-3-yl)-1-(1-ethylpyrrolidin-3-yl)-2,2,2-trifluoroethanol] | – | 0.003 | 0.023 | 0.015 | 0.2 | 0.09 | > 1 | 0.34 | > 3 | – |
| CC(O)(c1ccc(-n2cc(-c3ccnc4[nH]cnc34)cn2)nc1)C(F)(F)F (stereo not drawn) [Example 1125, 2-(6-(4-(3H-imidazo[4,5-b]pyridin-7-yl)-1H-pyrazol-1-yl)pyridin-3-yl)-1,1,1-trifluoropropan-2-ol] | – | 0.004 | 0.023 | 0.009 | 0.15 | 0.27 | > 10 | 0.26 | > 10 | – |
